In ChEMBL document CHEMBL3044902, “Effect of Optically Active Ethyl 2-Phthalimidooxypropionate on the Growth of Cress, Lepidium sativum” (1999) one finds inhibition of growth and inhibition data, which are given here for 19 compounds.

Format in all cases: functional
Assay [1] deals with Lepidium sativum. As to the kind of experiment: Inhibition of root growth of Lepidium sativum at 1 ppm relative to untreated control. The note with it: read-out: GI.
Assay [2] relates to Lepidium sativum. As to the kind of experiment: Inhibition of root growth of Lepidium sativum at 100 ppm relative to untreated control. Particulars: read-out: GI.
Assay [3] deals with Lepidium sativum. As to the kind of experiment: Inhibition of germination of Lepidium sativum at 100 ppm relative to untreated control.
Assay [4] has as its system Lepidium sativum. As to the kind of experiment: Inhibition of germination of Lepidium sativum at 10 ppm relative to untreated control.
For assay [5], the system named is Lepidium sativum. As to the kind of experiment: Inhibition of root growth of Lepidium sativum at 0.38 microM relative to untreated control. Particulars: read-out: GI.
Assay [6] deals with Lepidium sativum. As to the kind of experiment: Inhibition of root growth of Lepidium sativum at 1.1 microM relative to untreated control. Particulars: read-out: GI.
Assay [7] deals with Lepidium sativum. As to the kind of experiment: Inhibition of root growth of Lepidium sativum at 3.8 microM relative to untreated control. Particulars: read-out: GI.

Consider `CCOC(=O)CON1C(=O)c2ccccc2C1=O`, for which the inhibition of growth at 1 ppm with Lepidium sativum [1] worked out at 0%. In addition, the inhibition of growth at 100 ppm with Lepidium sativum [2] stood at 100%. The compound further yielded an inhibition at 100 ppm with Lepidium sativum [3] of 100%. This compound had an inhibition at 10 ppm in the assay with Lepidium sativum [4] of 0%.

Regarding `CCOC(=O)[C@@H](C)ON1C(=O)c2ccccc2C1=O`, in the assay on Lepidium sativum [5], the inhibition of growth at 0.38 µM stood at 0%. Besides, the inhibition of growth at 1.1 µM in the assay on Lepidium sativum [6] came out at 5%. Moreover, in the assay on Lepidium sativum [7], the inhibition of growth at 3.8 µM came out at 14%.

`CCCCCOC(=O)C(C)ON1C(=O)c2ccccc2C1=O` (configuration not stated): in the assay on Lepidium sativum [1], the inhibition of growth at 1 ppm is 64%.

In the case of `CCOC(=O)C(C)ON1C(=O)c2ccccc2C1=O` (configuration not stated), in the assay on Lepidium sativum [1], the inhibition of growth at 1 ppm was determined as 68%. In the assay on Lepidium sativum [2], the inhibition of growth at 100 ppm worked out at 100%. The compound also returned an inhibition at 100 ppm in the assay with Lepidium sativum [3] of 100%. At 10 ppm the inhibition in the assay on Lepidium sativum [4] was 0%.

Regarding `CCOC(=O)[C@H](C)ON1C(=O)c2ccccc2C1=O`, the inhibition of growth at 0.38 µM in the assay on Lepidium sativum [5] amounted to 35%. Besides, in the assay on Lepidium sativum [6], the inhibition of growth at 1.1 µM is 49%. In addition, the inhibition of growth at 3.8 µM with Lepidium sativum [7] is 72%.

For the compound `CC(ON1C(=O)c2ccccc2C1=O)C(=O)OC(C)(C)C` (configuration not stated), the inhibition of growth at 1 ppm in the assay with Lepidium sativum [1] was 1%.

As to `CCC(C)OC(=O)C(C)ON1C(=O)c2ccccc2C1=O` (configuration not stated), in the assay on Lepidium sativum [1], the inhibition of growth at 1 ppm worked out at 42%.

Turning to `CCCOC(=O)C(C)ON1C(=O)c2ccccc2C1=O` (configuration not stated), in the assay with Lepidium sativum [1], the inhibition of growth at 1 ppm was found to be 64%.

As for `CC(C)OC(=O)C(C)ON1C(=O)c2ccccc2C1=O` (configuration not stated), the inhibition of growth at 1 ppm in the assay with Lepidium sativum [1] turned out to be 51%.

For `CCCCOC(=O)C(C)ON1C(=O)c2ccccc2C1=O` (configuration not stated), the inhibition of growth at 1 ppm in the assay on Lepidium sativum [1] is 59%.

Consider `CCOC(=O)C(Cc1ccccc1)ON1C(=O)c2ccccc2C1=O` (configuration not stated), for which the inhibition of growth at 1 ppm with Lepidium sativum [1] is 0%. The inhibition of growth at 100 ppm with Lepidium sativum [2] is 70%. Further, the inhibition at 100 ppm in the assay on Lepidium sativum [3] stood at 0%.

Consider `CCCC(C)ON1C(=O)c2ccccc2C1=O` (configuration not stated), for which the inhibition of growth at 1 ppm in the assay on Lepidium sativum [1] turned out to be 0%. Besides, the inhibition of growth at 100 ppm in the assay with Lepidium sativum [2] was 56%. The same compound yielded an inhibition at 100 ppm in the assay on Lepidium sativum [3] of 0%.

With `CCOC(=O)C(C)CN1C(=O)c2ccccc2C1=O` (configuration not stated), the inhibition of growth at 1 ppm in the assay on Lepidium sativum [1] stood at 0%. In addition, the inhibition of growth at 100 ppm in the assay with Lepidium sativum [2] was found to be 41%. Also, the inhibition at 100 ppm in the assay with Lepidium sativum [3] worked out at 0%.

As for `COC(=O)C(C)ON1C(=O)c2ccccc2C1=O` (configuration not stated), the inhibition of growth at 1 ppm in the assay with Lepidium sativum [1] stood at 64%.

For the compound `CCCCCCC(ON1C(=O)c2ccccc2C1=O)C(=O)OCC` (configuration not stated), in the assay on Lepidium sativum [1], the inhibition of growth at 1 ppm worked out at 0%. Also, in the assay with Lepidium sativum [2], the inhibition of growth at 100 ppm turned out to be 72%. In addition, at 100 ppm the inhibition in the assay on Lepidium sativum [3] was 0%.

Turning to `CCOC(=O)C(ON1C(=O)c2ccccc2C1=O)c1ccccc1` (configuration not stated), in the assay on Lepidium sativum [1], the inhibition of growth at 1 ppm is 0%. Also, the inhibition of growth at 100 ppm in the assay with Lepidium sativum [2] was 60%. The compound further displayed an inhibition at 100 ppm with Lepidium sativum [3] of 0%.

On to `CCOC(=O)C(C)(C)ON1C(=O)c2ccccc2C1=O`, for which the inhibition of growth at 1 ppm in the assay with Lepidium sativum [1] was 0%. Also, the inhibition of growth at 100 ppm in the assay with Lepidium sativum [2] amounted to 95%. In the assay on Lepidium sativum [3], this compound returned an inhibition at 100 ppm of 60%. In the assay with Lepidium sativum [4], this compound came in with an inhibition at 10 ppm of 0%.

With `CCOC(=O)C(CC)ON1C(=O)c2ccccc2C1=O` (configuration not stated), in the assay with Lepidium sativum [1], the inhibition of growth at 1 ppm was found to be 0%. In addition, the inhibition of growth at 100 ppm with Lepidium sativum [2] was determined as 94%. This compound registered an inhibition at 100 ppm in the assay with Lepidium sativum [3] of 80%. Testing at 10 ppm in the assay on Lepidium sativum [4] gave an inhibition of 0%.

Take `CCOC(=O)C(C)ON1C(=O)c2ccccc2C1=O` (racemic): in the assay with Lepidium sativum [5], the inhibition of growth at 0.38 µM came to 14%. For the same compound, the inhibition of growth at 1.1 µM in the assay on Lepidium sativum [6] worked out at 33%. For the same compound, in the assay on Lepidium sativum [7], the inhibition of growth at 3.8 µM was determined as 68%.

For orientation: inhibition means how much of the control response was suppressed.
